Laboratory results reported in patent publication US12421240B2, “Hydropyrazino[1,2-d][1,4]diazepine compounds for the treatment of autoimmune disease” (Hoffmann-La Roche Inc., priority 2019, dated 2025).

Target: T1, human TLR9 (Homo sapiens, UniProt Q9NR96)
T1 sequence (Q9NR96 26-1032): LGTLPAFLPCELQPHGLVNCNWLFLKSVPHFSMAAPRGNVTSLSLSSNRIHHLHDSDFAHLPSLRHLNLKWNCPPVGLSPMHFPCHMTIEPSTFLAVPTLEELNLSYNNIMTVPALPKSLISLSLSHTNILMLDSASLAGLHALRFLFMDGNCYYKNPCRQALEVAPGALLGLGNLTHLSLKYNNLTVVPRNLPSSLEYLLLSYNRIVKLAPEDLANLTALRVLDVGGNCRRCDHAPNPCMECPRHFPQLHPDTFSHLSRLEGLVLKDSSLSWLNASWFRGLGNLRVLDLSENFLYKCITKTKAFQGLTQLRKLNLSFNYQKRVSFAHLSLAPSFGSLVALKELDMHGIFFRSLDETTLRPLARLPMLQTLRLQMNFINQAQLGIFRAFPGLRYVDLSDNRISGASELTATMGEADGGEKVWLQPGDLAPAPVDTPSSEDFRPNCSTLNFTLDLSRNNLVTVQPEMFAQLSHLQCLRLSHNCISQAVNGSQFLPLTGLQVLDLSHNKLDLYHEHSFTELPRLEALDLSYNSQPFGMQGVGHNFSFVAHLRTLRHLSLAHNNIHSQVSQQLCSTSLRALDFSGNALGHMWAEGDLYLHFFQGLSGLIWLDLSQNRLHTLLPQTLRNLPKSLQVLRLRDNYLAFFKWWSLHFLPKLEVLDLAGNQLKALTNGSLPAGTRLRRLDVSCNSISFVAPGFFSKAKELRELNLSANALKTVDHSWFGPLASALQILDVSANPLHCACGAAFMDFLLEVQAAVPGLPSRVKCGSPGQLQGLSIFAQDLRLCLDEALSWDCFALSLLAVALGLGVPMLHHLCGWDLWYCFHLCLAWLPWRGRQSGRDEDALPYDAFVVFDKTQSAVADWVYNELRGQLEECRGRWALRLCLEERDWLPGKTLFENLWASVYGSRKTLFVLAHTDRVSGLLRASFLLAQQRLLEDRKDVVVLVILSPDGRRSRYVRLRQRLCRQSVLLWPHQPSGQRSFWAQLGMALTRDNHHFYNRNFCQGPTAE
Experiment: HEK293-Blue-hTLR-9 cells assay (SEAP reporter, ODN2006 stimulation)
Format: cell-based
Conditions: HEK293-Blue-hTLR9 cells, ODN2006 ligand, 20 hrs; read-out: HEK/hTLR9 IC50
Procedure: The following tests were carried out in order to determine the activity of the compounds of formula (I), (Ia) or (Ib) in HEK293-Blue-hTLR-7/8/9 cells assay.
HEK293-Blue-hTLR-9 Cells Assay:
A stable HEK293-Blue-hTLR-9 cell line was purchased from InvivoGen (Cat. #: hkb-htlr9, San Diego, California, USA). These cells were originally designed for studying the stimulation of human TLR9 by monitoring the activation of NF-κB. A SEAP (secreted embryonic alkaline phosphatase) reporter gene was placed under the control of the IFN-β minimal promoter fused to five NF-κB and AP-1-binding sites. The SEAP was induced by activating NF-κB and AP-1 via stimulating HEK-Blue hTLR9 cells with TLR9 ligands. Therefore the reporter expression was declined by TLR9 antagonist under the stimulation of a ligand, such as ODN2006 (Cat. #: tlrl-2006-1, Invivogen, San Diego, California, USA), for incubation of 20 hrs. The cell culture supernatant SEAP reporter activity was determined using QUANTI-Blue™ kit (Cat. #: rep-qb1, Invivogen, San Diego, California, USA) at a wavelength of 640 nm, a detection medium that turns purple or blue in the presence of alkaline phosphatase.
HEK293-Blue-hTLR9 cells were incubated at a density of 250,000˜450,000 cells/mL in a volume of 170 μL in a 96-well plate in Dulbecco's Modified Eagle's medium (DMEM) containing 4.5 g/L glucose, 50 U/mL penicillin, […], 2 mM L-glutamine, 10% (v/v) heat-inactivated fetal bovine serum with addition of 20 μL test compound in a serial dilution in the presence of final DMSO at 1% and 10 μL of 20 uM ODN2006 in above DMEM, perform incubation under 37° C. in a CO2 incubator for 20 hrs. Then 20 μL of the supernatant from each well was incubated with 180 μL Quanti-blue substrate solution at 37° C. for 2 h and the absorbance was read at 620-655 nm using a spectrophotometer. The signaling pathway that TLR9 activation leads to downstream NF-κB activation has been widely accepted, and therefore similar reporter assay was modified for evaluating TLR9 antagonist.

C[C@@H]1CN(c2ccc(C#N)c3ncccc23)C[C@@H]2CCN(Cc3ccc(N4C[C@@H](N)[C@@H](F)C4)cn3)CCN21 [Example 20, 5-[(4R,10aS)-8-[[5-[(3R,4S)-3-amino-4-fluoro-pyrrolidin-1-yl]-2-pyridyl]methyl]-4-methyl-1,3,4,6,7,9,10,10a-octahydropyrazino[1,2-d][1,4]diazepin-2-yl]quinoline-8-carbonitrile]
IC50: 34.9 nM

C[C@@H]1CN(c2ccc(C#N)c3ncccc23)C[C@@H]2CCN(Cc3ccc(N4CCOC[C@H](N)C4)cn3)CCN21 [Example 21, 5-[(4R,10aS)-8-[[5-[(6R)-6-amino-1,4-oxazepan-4-yl]-2-pyridyl]methyl]-4-methyl-1,3,4,6,7,9,10,10a-octahydropyrazino[1,2-d][1,4]diazepin-2-yl]quinoline-8-carbonitrile]
IC50: 105 nM

CO[C@@H]1CN(c2ccc(CN3CC[C@H]4CN(c5ccc(C#N)c6ncccc56)C[C@@H](C)N4CC3)nc2)C[C@H]1N [Example 22, 5-[(4R,10aS)-8-[[5-[(3R,4R)-3-amino-4-methoxy-pyrrolidin-1-yl]-2-pyridyl]methyl]-4-methyl-1,3,4,6,7,9,10,10a-octahydropyrazino[1,2-d][1,4]diazepin-2-yl]quinoline-8-carbonitrile]
IC50: 62.8 nM

C[C@@H]1CN(c2ccc(C#N)c3ncccc23)C[C@@H]2CCN(Cc3ncc(N4CCNCC4)cc3F)CCN21 [Example 23, 5-[(4R,10aS)-8-[(3-fluoro-5-piperazin-1-yl-2-pyridyl)methyl]-4-methyl-1,3,4,6,7,9,10,10a-octahydropyrazino[1,2-d][1,4]diazepin-2-yl]quinoline-8-carbonitrile]
IC50: 39.1 nM

CO[C@@H]1CN(c2cnc(CN3CC[C@H]4CN(c5ccc(C#N)c6ncccc56)C[C@@H](C)N4CC3)c(F)c2)C[C@H]1N [Example 24, 5-[(4R,10aS)-8-[[5-[(3R,4R)-3-amino-4-methoxy-pyrrolidin-1-yl]-3-fluoro-2-pyridyl]methyl]-4-methyl-1,3,4,6,7,9,10,10a-octahydropyrazino[1,2-d][1,4]diazepin-2-yl]quinoline-8-carbonitrile]
IC50: 60.9 nM

CO[C@@H]1CN(c2cnc(CN3CC[C@H]4CN(c5ccc(C#N)n6nccc56)C[C@@H](C)N4CC3)c(F)c2)C[C@H]1N [Example 26, 4-[(4R,10aS)-8-[[5-[(3R,4R)-3-amino-4-methoxy-pyrrolidin-1-yl]-3-fluoro-2-pyridyl]methyl]-4-methyl-1,3,4,6,7,9,10,10a-octahydropyrazino[1,2-d][1,4]diazepin-2-yl]pyrazolo[1,5-a]pyridine-7-carbonitrile]
IC50: 87.4 nM

CO[C@@H]1CN(c2cnc(CN3CC[C@H]4CN(c5ccc(C#N)n6ncc(F)c56)C[C@@H](C)N4CC3)c(F)c2)C[C@H]1N [Example 27, 4-[(4R,10aS)-8-[[5-[(3R,4R)-3-amino-4-methoxy-pyrrolidin-1-yl]-3-fluoro-2-pyridyl]methyl]-4-methyl-1,3,4,6,7,9,10,10a-octahydropyrazino[1,2-d][1,4]diazepin-2-yl]-3-fluoro-pyrazolo[1,5-a]pyridine-7-carbonitrile]
IC50: 65.4 nM

C[C@@H]1CN(c2cc(=O)n(C)c3ncccc23)C[C@@H]2CCN(Cc3ccc4c(c3)CNCC4)CCN21 [Example 28, 4-[(4R,10aS)-4-methyl-8-(1,2,3,4-tetrahydroisoquinolin-7-ylmethyl)-1,3,4,6,7,9,10,10a-octahydropyrazino[1,2-d][1,4]diazepin-2-yl]-1-methyl-1,8-naphthyridin-2-one]
IC50: < 31.8 nM
